Measurements published in patent publication US20220411362A1, “DITERPENOID COMPOUNDS THAT ACT ON PROTEIN KINASE C (PKC)” (K-Gen, Inc., priority 2019, published 2022).

Tests used:
C1b domain of human PKCδ = target: T1, C1b domain of human PKCδ (Homo sapiens, UniProt Q05655); experiment: Competitive 3H-PDBu binding to C1b domain of PKCδ; conditions: Ki PKCδ, 3H-PDBu competition
T1 construct: Genes encoding C1b domains of human PKCα, δ, ε, θ, and PKD1 (PKCμ) were synthesized; made in house; host or cells: E. coli BL21(DE3)
T1 sequence (Q05655 230-280 limits assumed): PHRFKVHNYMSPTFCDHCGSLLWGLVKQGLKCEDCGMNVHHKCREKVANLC
Method: (§1) Compounds described in this disclosure were tested for binding affinity to C1b domain of PKC isoforms. Compound binding affinity to C1b domain of PKC isoforms was derived from competitive binding assay using radioactive tracer ^3H-PDBu and recombinant GST-C1b or full-length of human PKC proteins based on modified procedures from Methods in Molecular Biology, vol.
(§2) Genes encoding C1b domains of human PKCα, δ, ε, θ, and PKD1 (PKCμ) were synthesized and inserted into pGEX-2TK or pGEX-4T1 vectors for expression and production of GST-C1b proteins in E. coli BL21(DE3) via IPTG induction. The target proteins were purified by glutathione sepharose 4B and followed by ion exchange chromatography if needed to achieve purity >70%. Aliquots of the purified proteins were stored at −80 degree for binding assay (storage buffer: 20 mM Tris pH 8.0, 200 mM NaCl, 10% glycerol, 1 mM DTT).
(§3) The plate was incubated at 37° C. on a shaker at 300 rpm for 10 minutes and then put on ice for 20 minutes. […] The bottom of the filter plate was sealed and 50 μL of MicroScint-20 (PerkinElmer) cocktail was added to each well. ^3H-PDBu trapped in each well was counted using PerkinElmer MicroBeta2 Reader. Data were analyzed using GraphPad Prism5 with the model “log(inhibitor) vs. response-variable slope” to fit the IC50, and then IC50 was transformed to Ki using Cheng-Prusoff equation: Ki=IC50/(1+added radio ligand/Kd). Kd is the binding affinity of each protein preparation to ^3H-PDBu, determined experimentally.

[1] = system: HL-60 (Leukemia) cell line; experiment: Proliferation of HL-60; assay type: cell-based; conditions: for ratio of (IC50 of K01)/(IC50 of compound), HL-60: value in parenthesis; for IC50: Homo sapiens, HL-60, read-out: IC50 in μM HL-60 (Leukemia)
Method: (§4) The diterpenoid compounds were tested in A549, a non-small cell lung cancer cell line harboring a K-Ras activating mutation. Briefly, A549 cells at a density of 1,000 cells/well were seeded in 96-well plates and incubated at 37° C. for 24 hours. A series of different concentrations of compound stocks (500×) were prepared by 3-fold serial dilution in DMSO. These compounds were further diluted in culture media and then added to cells so that the final DMSO concentration was not exceeding 0.25%. After 96 hours of incubation, 50 μL of CellTiter Glo reagent (Promega) was added to each well and luminescence was measured after 10 minutes using EnVision (PerkinElmer). Luminescence from cells treated with DMSO alone was set as Max and % of inhibition was calculated as follows: Inhibition %=(Max−Sample value)/Max×100. Data was analyzed using XL-fit software (ID Business Solutions Ltd.) and IC50, relative IC50, and % of top inhibition was calculated. Some of the compounds in this disclosure were very potent in blocking proliferation of A549 lung cancer cells at low nM range. In addition, potency of inhibiting A549 proliferation correlated well with its binding affinity to PKCs for this series of compounds. In other words, higher affinity binders had stronger inhibitory effects on A549 proliferation. This further support the notion that activation, rather than inhibition, of certain PKC isoforms is required to block proliferation of cancer cells, some of which may harbor K-Ras mutations. This is in sharp contrast to previous literature and common belief that inhibition of PKC is necessary to block cancer cell growth (Kang, 2014, New Journal of Science, 2014:1-36). Data presented here is in agreement with recent findings that many loss-of-function but not gain-of-function mutations of PKC isoforms have been identified in many human cancers (Antal et al., 2015, Cell, 160:489-502).
(§5) The compounds in this disclosure were tested for their potency in blocking proliferation of a few other cancer cells lines, including K-Ras mutant pancreatic cell lines Panc2.13 and KP-4, leukemia cell line HL-60, and lymphoma cell lines Namalwa and Mino. Similar procedures as in Example 67 were followed. Initial cell numbers seeded in 96-well plates were different for different cell lines: 3000 cells/well for Panc2.13; 800-1000 cells/well for KP-4; 5000 cells/well for HL-60; 5000-10000 cells/well for Namalwa and Mino. A ratio ratio of (IC50 of K01)/(IC50 of compound) (data in parenthesis in Table 5) was used to normalize the compound potency from different assay batches to a common comparator […].

[2] = target: T2, C1b domain of human PKD1 (PKCμ) (Homo sapiens, UniProt Q15139); experiment: biochemical; assay type: binding
T2 construct: Genes encoding C1b domains of human PKCα, δ, ε, θ, and PKD1 (PKCμ) were synthesized; made in house; host or cells: E. coli BL21(DE3)
T2 sequence (Q15139 270-320 limits assumed): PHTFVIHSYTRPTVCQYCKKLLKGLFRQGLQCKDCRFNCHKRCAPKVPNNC
Method: as §1, §2, §3

[3] = system: Panc2.13 (Pancreatic) cell line; experiment: Proliferation of Panc2.13; assay type: cell-based
Method: as §4, §5

[4] = system: A549 non-small cell lung cancer cell line; experiment: Proliferation of A549 (CellTiter Glo); assay type: cell-based; conditions: Homo sapiens, A549, 96 h, read-out: IC50 μM (A549 Cell Line)
Method: as §4

[5] = system: Namalwa (Lymphoma) cell line; experiment: Proliferation of Namalwa; assay type: cell-based; conditions: for ratio of (IC50 of K01)/(IC50 of compound), Namalwa: value in parenthesis; for IC50: read-out: IC50 in μM Namalwa (Lymphoma)
Method: as §4, §5

C1b domain of human PKCα = target: T3, C1b domain of human PKCα (Homo sapiens, UniProt P17252); experiment: biochemical; assay type: binding; conditions: Ki PKCα, 3H-PDBu competition
T3 construct: Genes encoding C1b domains of human PKCα, δ, ε, θ, and PKD1 (PKCμ) were synthesized; made in house; host or cells: E. coli BL21(DE3)
Method: as §1, §2
The plate was incubated at 37° C. on a shaker at 300 rpm for 10 minutes and then put on ice for 20 minutes. […] The bottom of the filter plate was sealed and 50 μL of MicroScint-20 (PerkinElmer) cocktail was added to each well. ^3H-PDBu trapped in each well was counted using PerkinElmer MicroBeta2 Reader. […] Kd is the binding affinity of each protein preparation to ^3H-PDBu, determined experimentally.

[6] = system: Mino (Lymphoma) cell line; experiment: Proliferation of Mino; assay type: cell-based; conditions: for IC50: Homo sapiens, MINO, read-out: IC50 in μM Mino (Lymphoma); for ratio of (IC50 of K01)/(IC50 of compound), Mino: value in parenthesis
Method: as §4, §5

[7] = system: KP-4 (Pancreatic) cell line; experiment: Proliferation of KP-4; assay type: cell-based; conditions: Homo sapiens, KP-4, read-out: IC50 in μM KP-4 (Pancreatic)
Method: as §4, §5

C1b domain of human PKCε = target: T4, C1b domain of human PKCε (Homo sapiens, UniProt Q02156); experiment: Competitive 3H-PDBu binding to C1b domain of PKCε
T4 construct: Genes encoding C1b domains of human PKCα, δ, ε, θ, and PKD1 (PKCμ) were synthesized; made in house; host or cells: E. coli BL21(DE3)
T4 sequence (Q02156 242-292 limits assumed): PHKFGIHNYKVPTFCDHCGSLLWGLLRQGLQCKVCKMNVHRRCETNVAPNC
Method: as §1, §2, §3

C1b domain of human PKCθ = target: T5, C1b domain of human PKCθ (Homo sapiens, UniProt Q04759); experiment: Competitive 3H-PDBu binding to C1b domain of PKCθ
T5 construct: Genes encoding C1b domains of human PKCα, δ, ε, θ, and PKD1 (PKCμ) were synthesized; made in house; host or cells: E. coli BL21(DE3)
T5 sequence (Q04759 231-281 limits assumed): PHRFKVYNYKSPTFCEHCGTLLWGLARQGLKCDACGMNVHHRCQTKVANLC
Method: as §1, §2, §3

For `CC1=C[C@H]2[C@@]3(O)[C@H](C)C[C@]4(OC(=O)[C@@H](N)Cc5ccc(C(F)(F)F)cc5)[C@H]([C@@H]3C=C(CO)C[C@]2(O)C1=O)C4(C)C` [Compound K101-C1342], the Ki (C1b domain of human PKCδ) was 5 to 10 nM, the “ratio of (IC50 of K01)/(IC50 of compound), HL-60” value (shortened to “ratio … HL-60”) [1] was 6.43 and the IC50 [1] was 0.03 to 0.06 µM. For the same compound, the Ki [2] was under 5 nM, the “ratio of (IC50 of K01)/(IC50 of compound), Panc2.13” value ([3]; Panc2.13, value in parenthesis) was 6.79 and the IC50 ([3]; read-out: IC50 in μM Panc2.13 (Pancreatic)) was 0.1 to 0.2 µM. The IC50 [4] was 0.06 to 0.1 µM, the “ratio of (IC50 of K01)/(IC50 of compound), Namalwa” value (“ratio … Namalwa” for short) [5] was 1.68 and the IC50 [5] was 0.03 to 0.06 µM. For the same compound, the Ki (C1b domain of human PKCα) was 100 to 200 nM, the IC50 [6] was 0.01 to 0.03 µM and the “ratio of (IC50 of K01)/(IC50 of compound), Mino” value (from here on “ratio … Mino”) [6] was 6.2. It also gave an IC50 [7] of 0.06 to 0.1 µM.
`CC1=C[C@H]2[C@@]3(O)[C@H](C)C[C@]4(OC(=O)[C@H](N)C(C)(C)c5ccc(C(F)(F)F)cc5)[C@H]([C@@H]3C=C(CO)C[C@]2(O)C1=O)C4(C)C` [Compound K101-C134901] was tested, and the Ki (C1b domain of human PKCδ) was 1 to 30 nM, the “ratio … HL-60” value [1] was 2.75 and the IC50 [1] was 0.1 to 0.2 µM. For the same compound, the Ki (C1b domain of human PKCε) was 1 to 30 nM, the Ki [2] was 5 to 10 nM and the IC50 [4] was 0.2 to 0.6 µM. For the same compound, the “ratio … Namalwa” value [5] was 0.49, the IC50 [5] was 0.1 to 0.2 µM and the Ki (C1b domain of human PKCα) was 200 to 400 nM. The IC50 [6] was 0.01 to 0.03 µM, the “ratio … Mino” value [6] was 3.88 and the Ki (C1b domain of human PKCθ) was 1 to 30 nM.
With `CC1=C[C@H]2[C@@]3(O)[C@H](C)C[C@]4(OC(=O)[C@@H](N)C(C)(C)c5ccc(C(F)(F)F)cc5)[C@H]([C@@H]3C=C(CO)C[C@]2(O)C1=O)C4(C)C` [Compound K101-C134902] the Ki (C1b domain of human PKCδ) was under 5 nM, the “ratio … HL-60” value [1] was 12 and the IC50 [1] was 0.01 to 0.03 µM. For the same compound, the Ki (C1b domain of human PKCε) was 1 to 30 nM, the Ki [2] was under 5 nM and the IC50 [4] was 0.03 to 0.06 µM. For the same compound, the “ratio … Namalwa” value [5] was 3.5, the IC50 [5] was 0.01 to 0.03 µM and the Ki (C1b domain of human PKCα) was 30 to 60 nM. For the same compound, the IC50 [6] was 0.001 to 0.01 µM, the “ratio … Mino” value [6] was 15.7 and the Ki (C1b domain of human PKCθ) was 5 to 10 nM.
Work on `CC1=C[C@H]2[C@@]3(O)[C@H](C)C[C@]4(OC(=O)[C@H](N)CCCCCCc5ccc(C(F)F)cc5)[C@H]([C@@H]3C=C(CO)C[C@]2(O)C1=O)C4(C)C` [Compound K101-C137001] yielded a Ki (C1b domain of human PKCδ) of 1 to 30 nM, a Ki (C1b domain of human PKCε) of 30 to 60 nM and a Ki [2] of 1 to 30 nM. It also gave an IC50 [4] of 0.1 to 0.2 µM, a Ki (C1b domain of human PKCα) of 800 to 1000 nM and a Ki (C1b domain of human PKCθ) of 30 to 60 nM.
In the case of `CC1=C[C@H]2[C@@]3(O)[C@H](C)C[C@]4(OC(=O)[C@@H](N)CCCCCCc5ccc(C(F)F)cc5)[C@H]([C@@H]3C=C(CO)C[C@]2(O)C1=O)C4(C)C` [Compound K101-C137002], the Ki (C1b domain of human PKCδ) is reported as 1 to 30 nM, the Ki (C1b domain of human PKCε) is reported as 30 to 60 nM and the Ki [2] is reported as 5 to 10 nM. The IC50 [4] was 0.1 to 0.2 µM, the Ki (C1b domain of human PKCα) was 200 to 400 nM and the Ki (C1b domain of human PKCθ) was 1 to 30 nM.
